Source: PMC5333395, “Assessing histone demethylase inhibitors in cells: lessons learned” (Epigenetics & Chromatin, 2017)

Legend:
KDM2A = molecular target: T1, KDM2A (Homo sapiens, UniProt Q9Y2K7); test: High-content immunofluorescence (IF) assay, overexpressed full-length FLAG-tagged KDM in HeLa cells; assay type: cell-based; details: HeLa cells overexpressing WT KDM2A, 24 h; read-out: KDM2A, in cells, EC50 by IF assay (head: IC50)
T1 sequence (Q9Y2K7 1-1162): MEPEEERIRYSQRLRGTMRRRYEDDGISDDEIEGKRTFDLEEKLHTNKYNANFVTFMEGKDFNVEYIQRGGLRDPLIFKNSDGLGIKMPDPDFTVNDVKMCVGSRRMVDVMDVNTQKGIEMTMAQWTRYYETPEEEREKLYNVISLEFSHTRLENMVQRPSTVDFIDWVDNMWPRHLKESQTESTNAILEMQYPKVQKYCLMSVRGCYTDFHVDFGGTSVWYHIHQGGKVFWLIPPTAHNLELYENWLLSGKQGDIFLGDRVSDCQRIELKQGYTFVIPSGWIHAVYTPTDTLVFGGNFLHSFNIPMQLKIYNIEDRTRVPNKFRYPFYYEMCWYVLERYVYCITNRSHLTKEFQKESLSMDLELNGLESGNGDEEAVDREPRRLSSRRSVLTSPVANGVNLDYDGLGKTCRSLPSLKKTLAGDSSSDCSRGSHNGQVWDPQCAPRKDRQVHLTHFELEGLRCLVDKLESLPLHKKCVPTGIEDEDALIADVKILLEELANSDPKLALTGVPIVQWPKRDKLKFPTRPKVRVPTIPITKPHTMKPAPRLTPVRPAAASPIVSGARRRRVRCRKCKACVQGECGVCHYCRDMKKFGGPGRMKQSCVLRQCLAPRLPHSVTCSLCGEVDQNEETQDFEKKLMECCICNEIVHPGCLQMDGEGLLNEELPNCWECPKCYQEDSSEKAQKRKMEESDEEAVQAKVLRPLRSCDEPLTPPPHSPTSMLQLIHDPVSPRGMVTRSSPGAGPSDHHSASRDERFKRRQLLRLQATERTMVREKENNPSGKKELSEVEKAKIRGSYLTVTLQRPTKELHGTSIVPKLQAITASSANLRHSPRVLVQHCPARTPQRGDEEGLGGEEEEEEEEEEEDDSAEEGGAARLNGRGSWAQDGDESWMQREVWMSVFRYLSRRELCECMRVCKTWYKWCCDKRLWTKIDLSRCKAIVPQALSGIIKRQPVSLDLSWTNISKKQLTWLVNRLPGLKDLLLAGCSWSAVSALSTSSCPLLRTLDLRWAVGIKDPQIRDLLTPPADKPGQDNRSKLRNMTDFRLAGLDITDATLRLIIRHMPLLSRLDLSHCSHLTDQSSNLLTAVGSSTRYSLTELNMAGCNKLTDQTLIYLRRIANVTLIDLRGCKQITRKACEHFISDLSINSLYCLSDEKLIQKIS
Description: (§1) HeLa cells (ATCC) were cultured at 37 °C and 5% CO2 in Minimal Essential Media—Eagle (Sigma-Aldrich, UK) supplemented with 10% heat-inactivated foetal calf serum (FCS) (Gibco, UK), and 1% L-glutaMAX (Gibco, UK) in T75 flasks (Sarstedt, UK) and passaged regularly with TrypLE (Life Technologies, UK) before cells reached confluence. On day 0, 7000 cells per well were plated on a 96-well clear bottom CellCarrier plate (PerkinElmer, UK). The next day the cells were transfected with Lipofectamine 3000 (ThermoFisher Scientific, UK) following the manufacturer’s instructions. Briefly, 0.1 µg of plasmid DNA (encoding for the respective demethylase) and 0.15 µL of Lipofectamine 3000 were diluted in separate tubes containing 5 µL OptiMEM. 0.15 µL of P3000 was added to the tube with the DNA. The two solutions were then mixed gently and allowed to incubate for 5 min at room temperature. Next, the DNA-lipid complex was added to the cells for 4 h at 37 °C and 5% CO2.
(§2) Compound dilutions were made in a 96-well PCR plate (Starlab, UK). The culture medium was supplemented with 0.4% DMSO so that the solvent concentration was maintained throughout. Compounds were serially diluted at a 1:2 or 1:3 dilution ratio. Next, the cell culture plate was removed from the incubator and the medium was gently aspirated and replaced with the fresh medium containing diluted compounds.
(§3) Then cells were rinsed once with PBS and blocked for 30 min at room temperature using 3% v/v foetal calf serum diluted in PBS.

KDM6B = KDM6B (Homo sapiens, UniProt O15054); test: as above; assay type: cell-based; details: HeLa cells overexpressing WT KDM6B, H3K27me3 mark, 24 h; read-out: KDM6B, in cells, EC50 by IF assay (head: IC50)
Chain of KDM6B (O15054 whole entry): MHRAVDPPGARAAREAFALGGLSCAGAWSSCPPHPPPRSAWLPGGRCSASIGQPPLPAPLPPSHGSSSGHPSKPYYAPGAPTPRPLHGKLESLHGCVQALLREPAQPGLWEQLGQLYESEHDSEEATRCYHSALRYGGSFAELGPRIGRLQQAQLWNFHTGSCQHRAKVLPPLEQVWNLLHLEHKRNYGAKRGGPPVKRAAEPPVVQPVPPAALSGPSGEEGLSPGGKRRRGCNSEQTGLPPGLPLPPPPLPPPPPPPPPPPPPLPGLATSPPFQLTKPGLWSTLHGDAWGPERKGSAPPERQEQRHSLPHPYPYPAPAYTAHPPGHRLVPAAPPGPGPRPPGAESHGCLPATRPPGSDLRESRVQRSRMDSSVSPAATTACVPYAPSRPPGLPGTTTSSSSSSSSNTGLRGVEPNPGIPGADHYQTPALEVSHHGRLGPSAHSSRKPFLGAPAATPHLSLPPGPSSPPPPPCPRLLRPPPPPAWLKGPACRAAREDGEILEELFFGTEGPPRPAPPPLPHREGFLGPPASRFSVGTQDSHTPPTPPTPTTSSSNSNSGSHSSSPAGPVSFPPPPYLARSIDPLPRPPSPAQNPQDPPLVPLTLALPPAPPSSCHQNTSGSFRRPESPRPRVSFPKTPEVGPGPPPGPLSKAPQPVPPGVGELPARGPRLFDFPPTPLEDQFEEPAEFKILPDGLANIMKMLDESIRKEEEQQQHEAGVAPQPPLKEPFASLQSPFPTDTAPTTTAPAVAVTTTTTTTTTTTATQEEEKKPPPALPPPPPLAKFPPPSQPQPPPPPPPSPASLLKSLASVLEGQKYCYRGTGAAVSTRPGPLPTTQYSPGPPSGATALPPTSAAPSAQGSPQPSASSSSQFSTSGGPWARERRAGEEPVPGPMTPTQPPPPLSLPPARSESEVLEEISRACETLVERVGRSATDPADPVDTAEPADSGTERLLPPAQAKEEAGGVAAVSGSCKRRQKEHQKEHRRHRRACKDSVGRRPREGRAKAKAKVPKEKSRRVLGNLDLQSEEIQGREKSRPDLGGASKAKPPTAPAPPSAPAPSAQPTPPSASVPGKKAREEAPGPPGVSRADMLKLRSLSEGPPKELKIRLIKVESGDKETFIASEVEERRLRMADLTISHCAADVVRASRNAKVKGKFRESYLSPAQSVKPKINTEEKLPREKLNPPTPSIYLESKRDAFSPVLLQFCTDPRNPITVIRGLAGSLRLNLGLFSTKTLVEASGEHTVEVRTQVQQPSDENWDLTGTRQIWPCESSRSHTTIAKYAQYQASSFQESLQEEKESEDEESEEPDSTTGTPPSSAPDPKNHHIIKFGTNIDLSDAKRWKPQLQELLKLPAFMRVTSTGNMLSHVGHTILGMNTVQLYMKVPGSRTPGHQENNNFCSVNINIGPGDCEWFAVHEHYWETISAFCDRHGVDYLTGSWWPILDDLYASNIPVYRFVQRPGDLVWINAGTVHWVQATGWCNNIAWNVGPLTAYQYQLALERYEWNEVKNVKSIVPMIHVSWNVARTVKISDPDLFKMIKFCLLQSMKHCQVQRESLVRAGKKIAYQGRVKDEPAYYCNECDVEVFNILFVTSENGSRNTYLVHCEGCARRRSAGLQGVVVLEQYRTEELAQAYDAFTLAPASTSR
Description: as §1, §2, §3

KDM5C = KDM5C (Homo sapiens, UniProt P41229); design: method as in PMID 26741168; details: AlphaScreen; in vitro biochemical profiling previously reported; cited from earlier work
Chain of KDM5C (P41229 whole entry): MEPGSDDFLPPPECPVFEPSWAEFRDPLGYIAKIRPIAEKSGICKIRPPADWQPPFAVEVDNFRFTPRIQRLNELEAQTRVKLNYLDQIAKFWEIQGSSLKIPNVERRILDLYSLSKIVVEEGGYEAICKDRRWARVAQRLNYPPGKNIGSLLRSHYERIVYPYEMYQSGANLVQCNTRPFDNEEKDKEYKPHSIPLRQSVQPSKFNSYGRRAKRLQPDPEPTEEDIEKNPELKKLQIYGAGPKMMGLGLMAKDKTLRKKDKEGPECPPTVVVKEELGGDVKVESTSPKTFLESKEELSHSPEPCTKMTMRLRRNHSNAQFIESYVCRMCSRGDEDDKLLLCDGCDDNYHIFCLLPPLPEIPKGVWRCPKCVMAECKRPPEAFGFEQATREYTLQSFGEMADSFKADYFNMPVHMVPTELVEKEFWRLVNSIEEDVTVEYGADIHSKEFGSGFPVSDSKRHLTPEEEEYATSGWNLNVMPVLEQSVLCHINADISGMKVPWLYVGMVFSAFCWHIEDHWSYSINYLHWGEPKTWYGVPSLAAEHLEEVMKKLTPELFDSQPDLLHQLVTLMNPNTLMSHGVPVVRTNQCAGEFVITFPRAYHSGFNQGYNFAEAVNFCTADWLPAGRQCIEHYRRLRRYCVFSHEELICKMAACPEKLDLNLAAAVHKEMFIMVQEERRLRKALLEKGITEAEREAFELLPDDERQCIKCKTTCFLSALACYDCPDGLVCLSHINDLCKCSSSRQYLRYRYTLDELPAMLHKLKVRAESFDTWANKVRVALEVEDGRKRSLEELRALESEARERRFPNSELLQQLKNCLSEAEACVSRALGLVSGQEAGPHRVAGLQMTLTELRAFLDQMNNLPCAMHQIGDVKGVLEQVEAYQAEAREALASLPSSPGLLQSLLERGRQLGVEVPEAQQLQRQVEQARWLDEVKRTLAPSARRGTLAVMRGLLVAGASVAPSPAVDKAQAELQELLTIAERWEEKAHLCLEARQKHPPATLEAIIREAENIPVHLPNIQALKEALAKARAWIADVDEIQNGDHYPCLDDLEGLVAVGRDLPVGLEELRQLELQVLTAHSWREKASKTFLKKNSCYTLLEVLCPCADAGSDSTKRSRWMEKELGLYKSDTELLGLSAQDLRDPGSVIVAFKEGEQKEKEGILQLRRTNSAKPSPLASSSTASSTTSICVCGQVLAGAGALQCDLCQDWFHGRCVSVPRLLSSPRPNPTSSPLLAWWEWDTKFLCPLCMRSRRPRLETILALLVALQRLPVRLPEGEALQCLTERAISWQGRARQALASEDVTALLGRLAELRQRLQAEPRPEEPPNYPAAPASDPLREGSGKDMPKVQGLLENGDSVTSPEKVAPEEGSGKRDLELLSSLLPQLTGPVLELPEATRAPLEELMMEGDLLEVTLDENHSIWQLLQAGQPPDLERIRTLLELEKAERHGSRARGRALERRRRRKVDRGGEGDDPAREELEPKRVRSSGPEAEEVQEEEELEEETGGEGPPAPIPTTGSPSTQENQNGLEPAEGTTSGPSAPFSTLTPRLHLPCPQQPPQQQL

| Structure (SMILES) | EC50 (KDM2A) [µM] | EC50 (KDM6B) [µM] | IC50 (KDM5C) [µM] |
| --- | --- | --- | --- |
| CCN(CCN(C)C)C(=O)CNCc1cncc(C(N)=O)c1 [KDOAM-32] | > 100 | > 100 |  |
| Clc1ccc(N/N=C(\c2ccccc2)c2ccccn2)nc1 [JIB-04 E] |  |  | 0.622 ± 0.05 |
